According to patent US10219513B2, “Safening 4-amino-3-chloro-6-(4-chloro-2-fluoro-3-methoxyphenyl)-5-fluoropyridine-2-carboxylic acid compositions in Brassica species and methods of use thereof” (Dow AgroSciences LLC, priority 2016, dated 2019):

Columns and labels:
[1] = tested on: Brassica napus var. napobrassica (rutabaga, BRSNA); experiment: Greenhouse postemergence application, visual injury after 20-22 d, BRSNA; conditions: for % Visual Injury Obs / Obs % visual injury: BRSNA
Experimental: (§1) Seeds of the desired test plant species were planted in Sun Gro MetroMix® 306 planting mixture, which typically has a pH of 6.0 to 6.8 and an organic matter content of about 30 percent, in plastic pots with a surface area of 103.2 square centimeters (cm^2). […] The plants were grown for 7-36 days (d) in a greenhouse with an approximate 14-hour (h) photoperiod which was maintained at about 23° C. during the day and 22° C. during the night. Nutrients and water were added on a regular basis and supplemental lighting was provided with overhead metal halide 1000-Watt lamps as necessary. The plants were employed for testing when they reached the second or third true leaf stage.
(§2) An aliquot of formulated benzyl 4-amino-3-chloro-6-(4-chloro-2-fluoro-3-methoxyphenyl)-5-fluoropyridine-2-carboxylate (florpyrauxifen-benzyl; 300 grams active ingredient per liter (g ai/L) suspension concentrate (SC)) was placed in a 25 mL glass vial and diluted in a volume of 1.25% (v/v) aqueous Agri-dex crop oil concentrated to obtain a stock solution. […] The concentrated stock solutions were diluted with an aqueous mixture of 1.25% v/v of aqueous Agri-dex crop oil concentrate to provide the appropriate application rates. Compound requirements are based upon a 12 milliliter (mL) application volume at a rate of 187 liters per hectare (L/ha). Stock solutions of the formulated materials were prepared following the same procedure. Spray solutions of the compound mixtures were prepared by adding the stock solutions to the appropriate amount of dilution solution to form a 12 mL spray solution. Formulated compounds were applied to the plant material with an overhead Mandel track sprayer equipped with 8002E nozzles calibrated to deliver 187 L/ha over an application area of 0.503 square meters (m^2) at a spray height of 18 inches (43 centimeters (cm)) above average plant canopy. Control plants were sprayed in the same manner with the solvent blank.
(§3) The treated plants and control plants were placed in a greenhouse as described above and watered by sub-irrigation to prevent wash-off of the test compounds. After 20-22 d, the condition of the test plants as compared with that of the control plants was determined visually and scored on a scale of 0 to 100 percent where 0 corresponds to no injury and 100 corresponds to complete kill. Colby's equation was used to determine the herbicidal effects expected from the mixtures.
(§4) Benzyl 4-amino-3-chloro-6-(4-chloro-2-fluoro-3-methoxyphenyl)-5-fluoropyridine-2-carboxylate (florpyrauxifen-benzyl, 300 g ai/L SC) was combined in two-, three-, and four-way mixtures with one or more of the following: clopyralid-olamine (as Lontrel™ 35A Herbicidal Concentrate), quinclorac (as Facet 75DF), isoxadifen-ethyl (100 g/L SC), cloquintocet-mexyl (120 g/L EC) or mefenpyr-diethyl (as mefenpyr-diethyl 15WP). The mixtures were applied to kale/Chinese kale (Brassica alboglabra, BRSAG), Juncea canola or brown mustard (Brassica juncea, BRSJU), rutabaga (Brassica napus var. napobrassica, BRSNA), all varieties of canola and oilseed rape (Brassica napus, BRSNN), Nexera™ canola (Brassica napus, BRSNN-NEX), winter oilseed rape (Brassica napus, BRSNW), Roundup Ready® canola (Brassica napus, RR-BRSNN), and turnip or Polish canola (Brassica rapa, BRSRR), and the phytotoxicity of the compositions was measured.
(§5) Colby's equation was used to determine the herbicidal effects expected from the mixtures evaluated in the described trials (Colby, S. R. Calculation of the synergistic and antagonistic response of herbicide combinations. Weeds 1967, 15, 20-22.).
(§6) The following equation was used to calculate the expected activity of mixtures containing two active ingredients, A and B: Expected=A+B−(A×B/100) • A=observed efficacy of active ingredient A at the same concentration as used in the mixture; • B=observed efficacy of active ingredient B at the same concentration as used in the mixture.

[2] = tested on: Brassica napus (winter oilseed rape, BRSNW); experiment: Greenhouse postemergence application, visual injury after 20-22 d, BRSNW; conditions: for % Visual Injury Obs / Obs % visual injury: BRSNW
Experimental: as §1, §2, §3, §4, §5, §6

[3] = tested on: Brassica napus (Roundup Ready canola, RR-BRSNN); experiment: Greenhouse postemergence application, visual injury after 20-22 d, RR-BRSNN; conditions: for % Visual Injury Obs / Obs % visual injury: RR-BRSNN
Experimental: as §1, §2, §3, §4, §5, §6

[4] = postemergence application, greenhouse, application rate (g ai/ha) varies

O=C(O)c1c(Cl)ccc2cc(Cl)cnc12 [Quinclorac, 3,7-dichloro-8-quinolinecarboxylic acid]
0%: % Visual Injury Obs ([1]; 50 g ai/ha) | % Visual Injury Obs ([1]; 100 g ai/ha) | % Visual Injury Obs ([1]; 200 g ai/ha) | Obs % visual injury ([1]; partner alone 50 g ai/ha) | Obs % visual injury ([1]; partner alone 100 g ai/ha) | Obs % visual injury ([1]; partner alone 200 g ai/ha) | % Visual Injury BRSNA Obs [1, 4] | % Visual Injury BRSNA Obs ([1]; quinclorac 50 g ai/ha alone) | % Visual Injury BRSNA Obs ([1]; quinclorac 100 g ai/ha alone) | % Visual Injury BRSNA Obs ([1]; quinclorac 200 g ai/ha alone) | % Visual Injury Obs ([2]; 50 g ai/ha) | % Visual Injury Obs ([2]; 100 g ai/ha) | % Visual Injury Obs ([2]; 200 g ai/ha) | Obs % visual injury ([2]; partner alone 50 g ai/ha) | Obs % visual injury ([2]; partner alone 100 g ai/ha) | Obs % visual injury ([2]; partner alone 200 g ai/ha) | % Visual Injury BRSNW Obs [2, 4] | % Visual Injury BRSNW Obs ([2]; quinclorac 50 g ai/ha alone) | % Visual Injury BRSNW Obs ([2]; quinclorac 100 g ai/ha alone) | % Visual Injury BRSNW Obs ([2]; quinclorac 200 g ai/ha alone) | % Visual Injury Obs ([3]; 50 g ai/ha) | % Visual Injury Obs ([3]; 100 g ai/ha) | % Visual Injury Obs ([3]; 200 g ai/ha) | Obs % visual injury ([3]; partner alone 50 g ai/ha) | Obs % visual injury ([3]; partner alone 100 g ai/ha) | Obs % visual injury ([3]; partner alone 200 g ai/ha) | % Visual Injury RR-BRSNN Obs [3, 4] | % Visual Injury RR-BRSNN Obs ([3]; quinclorac 50 g ai/ha alone) | % Visual Injury RR-BRSNN Obs ([3]; quinclorac 100 g ai/ha alone) | % Visual Injury RR-BRSNN Obs ([3]; quinclorac 200 g ai/ha alone)
